Laboratory results from US9358228B2, “Therapeutic combinations of netupitant and palonosetron” (Helsinn Healthcare SA, priority 2011, dated 2016).

What was measured:
Assay type in all cases: in vivo, rat
[1] = tested on: spinal dorsal horn neurones in SNL rats; assay: Electrophysiology: electrically-evoked dorsal horn neural responses; settings: for AB-Fiber Response, Number of Action Potentials / AD-Fiber Response, Number of Action Potentials / C-Fiber Response, Number of Action Potentials / Input Response, Number of Action Potentials / Post Discharge Response, Number of Action Potentials / Wind-up Response, Number of Action Potentials: SNL rats, mean ± S.E.
Description: (§1) Electrophysiology experiments were conducted on post-operative days 14-17 in anaesthetised rats.
(§2) We recorded the evoked responses of dorsal horn lamina V-VI neurones to stimulation of the peripheral receptive field with: • a train of 16 electrical pulses at 3×C-fibre threshold • mechanical von Frey filaments of increasing force—vf 2 g, 8 g, 26 g and 60 g applied to the centre of the receptive field for 10 seconds • heat—40, 45 and 48° C. applied to the centre of the receptive field by a constant water jet for 10 seconds
(§3) Following 3 stable baseline responses, 0.03 mg/kg Palonosetron and 0.10 mg/kg Netupitant were administered into the scruff of the neck by subcutaneous injection. Drug effects were followed for two hours with tests carried out at 10, 30, 50, 70, 90 and 110 minutes post injection.
Input represents the post-synaptic C-fibre-evoked dorsal horn neuronal response following the first of the 16 electrical stimuli in the electrical train. It gives a measure of resting pre-synaptic activity (taken as total neuronal responsiveness upstream of the neurone under study, therefore including afferent excitability, activity at terminals and interneurones) and transmitter release in the absence of potentiation. The baseline ‘input’ response given numerically and graphically in this and other studies, was calculated as the number of C-fibre-evoked action potentials produced by the first stimulus (i.e. initial baseline response) multiplied by the total number of stimuli. Aβ-, Aδ-, and C-fibre responses denote the number of action potentials respectively generated in the spinal cord as a consequence of Aβ-, Aδ-, and C-fibre activity following electrical stimulation of their peripheral receptive field. Our Spike 2 Data Capturing software separates out which incoming action potentials are carried by which fibre according to their latency to arrive in the spinal cord following generation (given the different conduction velocities of the fibres). Thus, those arriving within 20 ms of peripheral stimulation are attributed to Aβ-fibres, Aδ-fibres=20-90 ms, and C-fibre-evoked responses were taken as those recorded 90-300 ms after electrical stimulation. Neuronal responses that trail behind between 300-800 ms post-stimulus are quantified as post-discharge, and represent spinal cord hyperexcitability that results as a consequence of repetitive stimulation of the neurone. Activity-dependent hyperexcitability can additionally be measured as wind-up. This value is calculated as the difference between the total number of action potentials at C-fibre latency produced by the train of 16 electrical stimuli, and ‘input’ as defined and calculated above. Therefore, if the first electrical stimulus elicited 15 C-fibre-evoked action potentials, and the total number of C-fibre-evoked action potentials recorded after 16 stimuli was 350, then wind up=350−([…])=200. If each post-synaptic response was independent of previous activity, then in the example above, the cumulative number of action potentials evoked by C-fibres after the 16 electrical stimuli should theoretically be […]. However, temporal summation of action potentials, and post-synaptic hyperexcitability amplify responses, so wind-up is a measure of the additional action potentials recorded above the predicted baseline level.

[2] = tested on: spinal dorsal horn neurones in SNL rats; assay: Electrophysiology: mechanical, heat and brush evoked dorsal horn neural responses; settings: mean ± S.E.
Description: as §1, §2, §3

[3] = tested on: acetic acid (AA)-induced colonic hypersensitivity in a rodent model; assay: Colonic sensitivity assessment: visceromotor response to colorectal distension after acetic acid infusion; settings: rats; for inhibition of AA-induced colonic hypersensitivity, agent alone: oral, effective dose not given (0.001-1 mg/kg dosed); for effect of 0.001 mg/kg dose alone on colonic and somatic sensitivity: 0.001 mg/kg p.o., agent alone
Description: Induction of Acute Visceral and Somatic Hypersensitivity: Visceral and somatic hypersensitivity were induced by infusing dilute (1.5 ml at 0.6%) acetic acid (AA) into the rat colon via a catheter (Intramedic PE 90 tubing) inserted via the anus to the level of the mid-colon. Within 60 mins colonic and somatic hypersensitivity was evident.
Colonic Sensitivity Assessment: Visceromotor responses (VMR) to colorectal distension (CRD) were measured by counting the number of abdominal contractions in response to increasing levels of CRD (0-60 mmHg). On the day of the colonic sensitivity assessment, a minor surgical procedure was performed to attach a strain gauge force transducer onto the abdominal oblique muscle and attached via an adapter cable to a Grass Model 7 Polygraph. The cable was connected to a Model 7P1 Low-Level DC Pre-Amp. The Pre-Amp was set at 0.02 mV/cm sensitivity and was connected to a Model 7DA DC Driver Amp with sensitivity set at […]. A 5 cm latex balloon was inserted into the distal colon. The balloon cannula was connected to a Distender Series IIR barostat (G & J Electronics Inc.) for controlled, isobaric inflation of the balloon and CRD using constant pressure (isobaric) tonic distensions were conducted at 0, 20, 40 and 60 mmHg. Each pressure was maintained for a period 10 min. during which time the number of abdominal muscle contractions were counted. A 10 min. recovery period was allowed between the each distension.
Test Compounds: Following surgery, rats were pre-dosed with Palonosetron (1-hr pre-dose), Netupitant (2-hr pre-dose) or methyl cellulose vehicle. Palonosetron and Netupitant were supplied by Helsinn Healthcare Inc. and were stored at 4° C. until prepared for dosing as a suspension in 1% methyl cellulose solution. The drug suspensions were prepared so that each rat received an oral dosing volume of 0.5 ml per 100 g body weight for doses of 0.001, 0.01, 0.1 or 1 mg/kg. Compounds were prepared fresh on the day of use.
Statistical Analysis: To determine statistical significance between multiple control and treatment groups, data was compared using one-way ANOVA followed by a Bonferroni post-test. Results were deemed significant when p-values were less than 0.05.

Cc1ccccc1-c1cc(N2CCN(C)CC2)ncc1N(C)C(=O)C(C)(C)c1cc(C(F)(F)F)cc(C(F)(F)F)c1 [Netu, 2-[3,5-bis(trifluoromethyl)phenyl]-N,2-dimethyl-N-[4-(2-methylphenyl)-6-(4-methylpiperazin-1-yl)pyridin-3-yl]propanamide]
AB-Fiber Response, Number of Action Potentials ([1]; Netu 0.1 mg/kg s.c.): 135 ± 10
AD-Fiber Response, Number of Action Potentials ([1]; Netu 0.1 mg/kg s.c.): 103 ± 13
C-Fiber Response, Number of Action Potentials ([1]; Netu 0.1 mg/kg s.c.): 292 ± 45
Input Response, Number of Action Potentials ([1]; Netu 0.1 mg/kg s.c.): 293 ± 46
Post Discharge Response, Number of Action Potentials ([1]; Netu 0.1 mg/kg s.c.): 195 ± 29
Wind-up Response, Number of Action Potentials ([1]; Netu 0.1 mg/kg s.c.): 270 ± 38
effect on electrophysiological measures of pain control, agent alone [1]: independent effect
Brush-Evoked, Number of Action Potentials ([2]; Netu 0.1 mg/kg s.c.): 310 ± 40
Heat-Evoked 40° Celsius, Number of Action Potentials ([2]; Netu 0.1 mg/kg s.c.): 298 ± 72
Heat-Evoked 45° Celsius, Number of Action Potentials ([2]; Netu 0.1 mg/kg s.c.): 381 ± 82
Heat-Evoked 48° Celsius, Number of Action Potentials ([2]; Netu 0.1 mg/kg s.c.): 495 ± 186
Mechanically-Evoked 8 g vF Filament, Number of Action Potentials ([2]; Netu 0.1 mg/kg s.c.): 190 ± 42
Mechanically-Evoked 26 g vF Filament, Number of Action Potentials ([2]; Netu 0.1 mg/kg s.c.): 390 ± 56
Mechanically-Evoked 60 g vF Filament, Number of Action Potentials ([2]; Netu 0.1 mg/kg s.c.): 486 ± 75
inhibition of AA-induced colonic hypersensitivity, agent alone [3]: significantly inhibited
effect of 0.001 mg/kg dose alone on colonic and somatic sensitivity [3]: non-effective

Cl.O=C1c2cccc3c2[C@H](CCC3)CN1[C@@H]1CN2CCC1CC2 [Palo, (3aS)-2-[(S)-1-Azabicyclo[2.2.2]oct-3-yl]-2,3,3a,4,5,6-hexahydro-1-oxo-1Hberiz[de]isoquinoline]
AB-Fiber Response, Number of Action Potentials ([1]; Palo 0.03 mg/kg s.c.): 141 ± 22
AD-Fiber Response, Number of Action Potentials ([1]; Palo 0.03 mg/kg s.c.): 192 ± 51
C-Fiber Response, Number of Action Potentials ([1]; Palo 0.03 mg/kg s.c.): 518 ± 103
Input Response, Number of Action Potentials ([1]; Palo 0.03 mg/kg s.c.): 461 ± 86
Post Discharge Response, Number of Action Potentials ([1]; Palo 0.03 mg/kg s.c.): 417 ± 127
Wind-up Response, Number of Action Potentials ([1]; Palo 0.03 mg/kg s.c.): 559 ± 192
effect on electrophysiological measures of pain control, agent alone [1]: zero or minimal effect
Brush-Evoked, Number of Action Potentials ([2]; Palo 0.03 mg/kg s.c.): 144 ± 59
Heat-Evoked 40° Celsius, Number of Action Potentials ([2]; Palo 0.03 mg/kg s.c.): 136 ± 58
Heat-Evoked 45° Celsius, Number of Action Potentials ([2]; Palo 0.03 mg/kg s.c.): 380 ± 187
Heat-Evoked 48° Celsius, Number of Action Potentials ([2]; Palo 0.03 mg/kg s.c.): 816 ± 101
Mechanically-Evoked 8 g vF Filament, Number of Action Potentials ([2]; Palo 0.03 mg/kg s.c.): 211 ± 42
Mechanically-Evoked 26 g vF Filament, Number of Action Potentials ([2]; Palo 0.03 mg/kg s.c.): 539 ± 17
Mechanically-Evoked 60 g vF Filament, Number of Action Potentials ([2]; Palo 0.03 mg/kg s.c.): 799 ± 192
inhibition of AA-induced colonic hypersensitivity, agent alone [3]: significantly inhibited
effect of 0.001 mg/kg dose alone on colonic and somatic sensitivity [3]: non-effective
